Data as given in publication PMC11420776 (RSC Advances, 2024).

Key:
CCRF-CEM (leukemia) = assay: NCI 60-cell one-dose antiproliferative screen; format: cell-based, human; conditions: one dose 10 μM
[1] = system: A549/ATCC (NSC lung cancer); assay: NCI 60-cell one-dose antiproliferative screen; format: cell-based, human; conditions: one dose 10 μM
EKVX (NSC lung cancer) = assay: NCI 60-cell one-dose antiproliferative screen; format: cell-based, human; conditions: one dose 10 μM
HOP-62 (NSC lung cancer) = assay: NCI 60-cell one-dose antiproliferative screen; format: cell-based, human; conditions: one dose 10 μM
HOP-92 (NSC lung cancer) = assay: NCI 60-cell one-dose antiproliferative screen; format: cell-based, human; conditions: one dose 10 μM
[2] = system: NCI-H23 (NSC lung cancer); assay: NCI 60-cell one-dose antiproliferative screen; format: cell-based, human; conditions: one dose 10 μM
[3] = system: NCI-H322M (NSC lung cancer); assay: NCI 60-cell one-dose antiproliferative screen; format: cell-based, human; conditions: one dose 10 μM
[4] = system: NCI-H460 (NSC lung cancer); assay: NCI 60-cell one-dose antiproliferative screen; format: cell-based, human; conditions: one dose 10 μM
COLO-205 (colon cancer) = assay: NCI 60-cell one-dose antiproliferative screen; format: cell-based, human; conditions: one dose 10 μM
HCC-2998 (colon cancer) = assay: NCI 60-cell one-dose antiproliferative screen; format: cell-based, human; conditions: one dose 10 μM
HCT-116 (colon cancer) = assay: NCI 60-cell one-dose antiproliferative screen; format: cell-based, human; conditions: one dose 10 μM
HCT-15 (colon cancer) = assay: NCI 60-cell one-dose antiproliferative screen; format: cell-based, human; conditions: one dose 10 μM
KM12 (colon cancer) = assay: NCI 60-cell one-dose antiproliferative screen; format: cell-based, human; conditions: one dose 10 μM
SF-268 (CNS cancer) = assay: NCI 60-cell one-dose antiproliferative screen; format: cell-based, human; conditions: one dose 10 μM
SF-295 (CNS cancer) = assay: NCI 60-cell one-dose antiproliferative screen; format: cell-based, human; conditions: one dose 10 μM
SF-539 (CNS cancer) = assay: NCI 60-cell one-dose antiproliferative screen; format: cell-based, human; conditions: one dose 10 μM
SNB-19 (CNS cancer) = assay: NCI 60-cell one-dose antiproliferative screen; format: cell-based, human; conditions: one dose 10 μM
U251 (CNS cancer) = assay: NCI 60-cell one-dose antiproliferative screen; format: cell-based, human; conditions: one dose 10 μM
MDA-MB-435 (melanoma) = assay: NCI 60-cell one-dose antiproliferative screen; format: cell-based, human; conditions: one dose 10 μM
SK-MEL-28 (melanoma) = assay: NCI 60-cell one-dose antiproliferative screen; format: cell-based, human; conditions: one dose 10 μM
UACC-257 (melanoma) = assay: NCI 60-cell one-dose antiproliferative screen; format: cell-based, human; conditions: one dose 10 μM
UACC-62 (melanoma) = assay: NCI 60-cell one-dose antiproliferative screen; format: cell-based, human; conditions: one dose 10 μM
IGROV1 (ovarian cancer) = assay: NCI 60-cell one-dose antiproliferative screen; format: cell-based, human; conditions: one dose 10 μM
OVCAR-3 (ovarian cancer) = assay: NCI 60-cell one-dose antiproliferative screen; format: cell-based, human; conditions: one dose 10 μM
OVCAR-4 (ovarian cancer) = assay: NCI 60-cell one-dose antiproliferative screen; format: cell-based, human; conditions: one dose 10 μM
OVCAR-5 (ovarian cancer) = assay: NCI 60-cell one-dose antiproliferative screen; format: cell-based, human; conditions: one dose 10 μM
[5] = system: NCI/ADR-RES (ovarian cancer); assay: NCI 60-cell one-dose antiproliferative screen; format: cell-based, human; conditions: one dose 10 μM
SK-OV-3 (ovarian cancer) = assay: NCI 60-cell one-dose antiproliferative screen; format: cell-based, human; conditions: one dose 10 μM
786-0 (renal cancer) = assay: NCI 60-cell one-dose antiproliferative screen; format: cell-based, human; conditions: one dose 10 μM
A498 (renal cancer) = assay: NCI 60-cell one-dose antiproliferative screen; format: cell-based, human; conditions: one dose 10 μM
ACHN (renal cancer) = assay: NCI 60-cell one-dose antiproliferative screen; format: cell-based, human; conditions: one dose 10 μM
CAKI-1 (renal cancer) = assay: NCI 60-cell one-dose antiproliferative screen; format: cell-based, human; conditions: one dose 10 μM
RXF 393 (renal cancer) = assay: NCI 60-cell one-dose antiproliferative screen; format: cell-based, human; conditions: one dose 10 μM
SN12C (renal cancer) = assay: NCI 60-cell one-dose antiproliferative screen; format: cell-based, human; conditions: one dose 10 μM
TK-10 (renal cancer) = assay: NCI 60-cell one-dose antiproliferative screen; format: cell-based, human; conditions: one dose 10 μM
UO-31 (renal cancer) = assay: NCI 60-cell one-dose antiproliferative screen; format: cell-based, human; conditions: one dose 10 μM
PC-3 (prostate cancer) = assay: NCI 60-cell one-dose antiproliferative screen; format: cell-based, human; conditions: one dose 10 μM
DU-145 (prostate cancer) = assay: NCI 60-cell one-dose antiproliferative screen; format: cell-based, human; conditions: one dose 10 μM
[6] = system: MDA-MB-231/ATCC (breast cancer); assay: NCI 60-cell one-dose antiproliferative screen; format: cell-based, human; conditions: one dose 10 μM
HS 578T (breast cancer) = assay: NCI 60-cell one-dose antiproliferative screen; format: cell-based, human; conditions: one dose 10 μM
T-47D (breast cancer) = assay: NCI 60-cell one-dose antiproliferative screen; format: cell-based, human; conditions: one dose 10 μM
[7] = system: MDA-MB-468 (breast cancer); assay: NCI 60-cell one-dose antiproliferative screen; format: cell-based, human; conditions: one dose 10 μM
[8] = system: 60 human tumor cell lines; assay: NCI 60-cell one-dose antiproliferative screen, whole panel; format: cell-based; conditions: Homo sapiens, 60 cell, read-out: Mean inhibition (mean GI%)
[9] = system: breast cancer cell line MCF7; assay: MTT cytotoxicity assay, MCF7; format: cell-based, human
[10] = MTT cytotoxicity assay, MCF10a; format: cell-based; conditions: human, MCF10a normal mammary epithelial cells
c-Met kinase = c-Met kinase (Homo sapiens, UniProt P08581); assay: c-Met kinase inhibition assay; format: biochemical
Pim-1 kinase = Pim-1 kinase (Homo sapiens, UniProt P11309); assay: Pim-1 kinase inhibition assay; format: biochemical
MCF7 cells = assay: Annexin V/PI dual staining apoptosis assay; format: cell-based, human; conditions: MCF7, 24 h, 4g at IC50 (0.56 μM)

Chain of Pim-1 kinase (P11309 whole entry): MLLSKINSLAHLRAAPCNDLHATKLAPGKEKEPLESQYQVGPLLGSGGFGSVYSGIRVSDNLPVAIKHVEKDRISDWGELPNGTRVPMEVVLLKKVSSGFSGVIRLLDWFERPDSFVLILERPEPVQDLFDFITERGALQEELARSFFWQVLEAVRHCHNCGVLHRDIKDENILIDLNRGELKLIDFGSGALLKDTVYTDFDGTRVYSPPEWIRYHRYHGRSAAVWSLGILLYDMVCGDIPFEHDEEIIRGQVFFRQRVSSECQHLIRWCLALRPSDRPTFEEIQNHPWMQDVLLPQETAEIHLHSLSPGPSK
Chain of c-Met kinase (P08581 25-1390): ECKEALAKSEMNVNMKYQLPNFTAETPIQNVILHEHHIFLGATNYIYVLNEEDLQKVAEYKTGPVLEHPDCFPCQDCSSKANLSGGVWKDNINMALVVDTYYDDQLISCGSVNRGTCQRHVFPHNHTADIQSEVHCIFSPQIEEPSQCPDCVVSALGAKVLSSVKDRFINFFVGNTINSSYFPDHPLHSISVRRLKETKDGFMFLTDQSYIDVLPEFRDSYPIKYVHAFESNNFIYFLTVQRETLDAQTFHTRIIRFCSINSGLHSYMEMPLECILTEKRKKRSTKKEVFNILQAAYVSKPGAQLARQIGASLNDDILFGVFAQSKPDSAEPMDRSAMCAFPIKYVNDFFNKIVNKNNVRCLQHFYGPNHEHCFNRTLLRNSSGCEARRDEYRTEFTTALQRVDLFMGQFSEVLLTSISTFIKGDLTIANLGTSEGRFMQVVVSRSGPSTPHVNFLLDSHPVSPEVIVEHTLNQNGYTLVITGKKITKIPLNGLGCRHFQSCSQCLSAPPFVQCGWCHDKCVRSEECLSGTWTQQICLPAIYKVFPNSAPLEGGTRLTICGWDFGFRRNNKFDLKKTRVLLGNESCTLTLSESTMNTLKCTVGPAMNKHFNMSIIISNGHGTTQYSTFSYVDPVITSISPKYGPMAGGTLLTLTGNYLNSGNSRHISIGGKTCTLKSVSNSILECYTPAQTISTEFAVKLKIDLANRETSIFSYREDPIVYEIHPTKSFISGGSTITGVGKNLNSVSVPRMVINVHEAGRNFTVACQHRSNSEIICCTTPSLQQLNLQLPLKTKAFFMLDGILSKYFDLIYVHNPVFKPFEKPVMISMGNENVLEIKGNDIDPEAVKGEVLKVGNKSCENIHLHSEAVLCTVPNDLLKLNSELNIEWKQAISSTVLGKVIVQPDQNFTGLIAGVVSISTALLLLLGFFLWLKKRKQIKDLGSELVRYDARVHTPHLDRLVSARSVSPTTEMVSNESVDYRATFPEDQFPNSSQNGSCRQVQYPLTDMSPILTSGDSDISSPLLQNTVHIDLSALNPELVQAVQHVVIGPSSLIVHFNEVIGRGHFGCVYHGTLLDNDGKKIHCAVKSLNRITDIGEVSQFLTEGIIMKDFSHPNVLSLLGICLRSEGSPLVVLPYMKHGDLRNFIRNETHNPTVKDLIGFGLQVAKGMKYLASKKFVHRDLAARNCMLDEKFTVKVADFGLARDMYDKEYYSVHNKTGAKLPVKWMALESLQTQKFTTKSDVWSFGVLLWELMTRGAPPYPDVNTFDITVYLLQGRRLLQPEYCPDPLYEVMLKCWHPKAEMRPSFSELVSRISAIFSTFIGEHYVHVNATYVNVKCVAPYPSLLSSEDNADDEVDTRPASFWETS

IC50 (c-Met kinase): 163 ± 10 nM
IC50 (Pim-1 kinase): 283 ± 10 nM
SMILES: COc1ccc(-c2nnc3ccc(NN=Cc4ccc(O)cc4)nn23)cc1 [Compound 4g, 4-((2-(3-(4-Methoxyphenyl)-[1,2,4]triazolo[4,3-b]pyridazin-6-yl)hydrazono)methyl)phenol]
GI% (CCRF-CEM (leukemia)): 85.88%
GI% [1]: 41.49%
GI% (EKVX (NSC lung cancer)): 62.20%
GI% (HOP-62 (NSC lung cancer)): — (— GI% is below 15%)
GI% (HOP-92 (NSC lung cancer)): 68.67%
GI% [2]: 67.47%
GI% [3]: 38.06%
GI% [4]: 55.73%
GI% (COLO-205 (colon cancer)): 43.51%
GI% (HCC-2998 (colon cancer)): 85.07%
GI% (HCT-116 (colon cancer)): 72.71%
GI% (HCT-15 (colon cancer)): 73.30%
GI% (KM12 (colon cancer)): 71.51%
GI% (SF-268 (CNS cancer)): 64.19%
GI% (SF-295 (CNS cancer)): 56.41%
GI% (SF-539 (CNS cancer)): 63.61%
GI% (SNB-19 (CNS cancer)): 32.46%
GI% (U251 (CNS cancer)): 32.41%
GI% (MDA-MB-435 (melanoma)): 54.20%
GI% (SK-MEL-28 (melanoma)): 30.86%
GI% (UACC-257 (melanoma)): 17.70%
GI% (UACC-62 (melanoma)): 41.19%
GI% (IGROV1 (ovarian cancer)): 60.66%
GI% (OVCAR-3 (ovarian cancer)): 62.40%
GI% (OVCAR-4 (ovarian cancer)): 52.11%
GI% (OVCAR-5 (ovarian cancer)): — (— GI% is below 15%)
GI% [5]: 73.98%
GI% (SK-OV-3 (ovarian cancer)): — (— GI% is below 15%)
GI% (786-0 (renal cancer)): 77.10%
GI% (A498 (renal cancer)): — (— GI% is below 15%)
GI% (ACHN (renal cancer)): 56.52%
GI% (CAKI-1 (renal cancer)): 78.54%
GI% (RXF 393 (renal cancer)): 57.34%
GI% (SN12C (renal cancer)): 57.71%
GI% (TK-10 (renal cancer)): 61.05%
GI% (UO-31 (renal cancer)): 69.74%
GI% (PC-3 (prostate cancer)): 59.52%
GI% (DU-145 (prostate cancer)): 48.11%
GI% [6]: 39.44%
GI% (HS 578T (breast cancer)): 53.18%
GI% (T-47D (breast cancer)): 54.64%
GI% [7]: 51.76%
inhibition at 10 µM [8]: 55.8%
IC50 ([9]; Homo sapiens, MCF7, 72 h, read-out: Cytotoxicity IC50 MCF7): 560 ± 30 nM
Selectivity index ([9]; IC50 on normal cells (MCF10a) / IC50 on cancer cells (MCF7)): 19.11
IC50 at 72 h [10]: 10700 ± 560 nM
Apoptosis Early (MCF7 cells): 25.16%
Apoptosis Late (MCF7 cells): 18.13%
Necrosis (MCF7 cells): 5.27%
increase in the percentage of total apoptosis (MCF7 cells; compared to the control): 29.61 fold
